Publication PMC11874377, “Fungal-derived methyldeoxaphomins target Plasmodium falciparum segregation through the inhibition of PfActin1” (Proceedings of the National Academy of Sciences of the …, 2025)
Several values for one entry are separate records, joined by “and”; a condition that tells them apart may be missing. Identical values can stand only once. Like-named read-outs stand apart in the source and are kept apart here.

What was measured:
[1] = test system: P. falciparum; assay: Isobologram assay with NPDG-F; format: cell-based, Plasmodium falciparum; conditions: for IC50: single compounds, dose–response, Fig. 3A, read-out: Mean IC50 ± SEM; for relationship with NPDG-F at low concentrations: low / very low concentrations; for relationship with NPDG-F at higher concentrations: moderate to high / higher concentrations
Description: To further explore the relationship of NPDG-F with established actin-interfering drugs, an isobologram study was performed (Fig. 3). NPDG-F was added in combination with four inhibtors known to interfere with actin polymerization including a formin inhibitor SMIFH2, cofilin inhibitor SZ-3, F-actin targeting compound jasplakinolide, and G-actin targeting latrunculin B. The frontline antimalarial DHA was also added as a nonactin inhibitor control. After dose–response curves were generated (Fig. 3A), the fractional inhibitory concentrations (FICs) of NPDG-F and the combination drug were calculated and graphed. […]
(§1) Plasmodium blood stage culture
(§2) Parasite culture in the Chakrabarti lab was maintained following a modified Trager and Jensen protocol (Trager & Jensen, 1976) as previously described (Lee et al., 2021) with RPMI 1640 with 25 mM HEPES pH 7.4, 26 mM NaHCO3, 15 mg/L hypoxanthine, 0.5% Albumax II, 25 mg/L gentamycin, and 2% dextrose. Parasites were grown with human A+ erythrocytes obtained from Florida OneBlood. Cultures were kept in an incubator with 5% […]
(§3) Antiplasmodial activity screening
(§4) SYBR Green I-based fluorescence assay was performed as previously described (Lee et al., 2021) following protocols by Smilkstein et. al. (Smilkstein et al., 2004). Asynchronous Dd2 parasites were added to serially diluted compounds and incubated for 72 h at 5% CO2, 95% air at 37°C. Plates were then frozen at -80°C, thawed, and incubated for one hour with 1x SYBR Green I in a lysis buffer (20 mM Tris-HCL, 0.08% saponin, 5 mM EDTA, and 0.8% Triton X-100). Fluorescence was then read on a Synergy Neo2 multimode reader (BioTek Winsooki, VT). Compound dose response curves and EC50 determination was performed using CDD Vault normalized to 10 µM CQ and vehicle […]
For isobologram assessment, inhibitors were tested using a 1:2 dilution with starting concentrations selected as 40 nM for DHA, 100 µM Latrunculin B, 100 µM SMIFH2, and 40 nM for jasplakinolide. These concentrations were selected to provide 2-3 points above […]
EC50s. The test inhibitor methyldeoxaphomin NPDG-F was then added in combination with the aforementioned inhibitors at concentrations ranging from 10 to 0.3125 µM. Dose-response curves were then generated for the available conditions where EC50s could be determined. The fractional inhibitor concentration of both compounds was then determined as described (Fivelman et al., 2004) for the available points and graphed on a scale of 0-1 also using Graphpad Prism version 10. […]

[2] = test system: P. falciparum; assay: Parasite reduction ratio (PRR); format: cell-based, Plasmodium falciparum; conditions: 10 × EC50
Description: After a 24 h lag phase, only 10^0.64 parasites are killed within the first replication cycle (48 h). […] We also examined the in vitro killing rate in Dd2 through flow cytometric analysis. […]
Parasite reduction ratio adapted from protocol by Sanz et al (Sanz et al., 2012). In brief, early ring stage mono-infected RBCs at 106 were incubated with a 10 x EC50 concentration of NPDG-F, DHA, or atovaquone for either 24, 48, 72, 96, or 120 h. Following incubations, cells were washed and serially diluted. After 3 weeks, growth was determined via SYBR […]
Green I staining. […]

[3] = test system: human HepG2 hepatoma cells; assay: cells; format: cell-based
Description: (§5) The antiplasmodial activity of these analogs was assessed in P. falciparum asexual blood stage using a SYBR Green I-based assay. Compounds were tested in both the multidrug resistant line Dd2, and the chloroquine-sensitive line 3D7, to probe any potential for preexisting resistance. […] These methyldeoxaphomin analogs were also cross-screened for cytotoxicity in the human cell line HepG2 to determine their selectivity for the Plasmodium parasite. […] This effect was maintained with analog NPDG-F where both R1 and R2 were substituted with OH groups. […] In addition, the hydroxyl group at carbon 7 seems to be critical for function as a drastic loss of potency was found in NPDG-D as compared to B and C. […]
Cytotoxicity was assessed using an MTS (3-(4,5-Dimethylthiazol-2-yl)-5-(3-carboxymethoxyphenyl)-2-(4-sulfophenyl)-2H-tetrazolium) absorbance assay with human HepG2 hepatoma cells. Cells were maintained in MEM supplemented with 10%FBS, 1% Antibiotic/Antimycotic, 1 mM sodium pyruvate, and 0.15% sodium bicarbonate in a 5 % CO2, 95% air environment at 37°C. For the assay cells were seeded at a density of 2,250 cells per well on 384-well microtiter plates 24 h prior to compound addition. Following a 48-h incubation with compounds, MTS solution was added to wells and absorbance was read after 2-4 h on a Synergy Neo2 multimode reader (BioTek Winsooki, VT). Compound dose response curves and EC50 determination was performed using CDD Vault normalized to 5% triton and vehicle controls. […]

[4] = test system: P. falciparum chloroquine-sensitive line 3D7; assay: SYBR Green I-based antiplasmodial assay, asexual blood stage, 3D7; format: cell-based, Plasmodium falciparum
Description: as §5, §1, §2, §3
as §4, with “VT).” for “VT). Compound dose response curves and EC50 determination was performed using CDD Vault normalized to 10 µM CQ and vehicle”

[5] = test system: P. falciparum multidrug resistant line Dd2; assay: SYBR Green I-based antiplasmodial assay, asexual blood stage, Dd2; format: cell-based, Plasmodium falciparum
Description: as §5, §1, §2, §3
as §4, with “VT).” for “VT). Compound dose response curves and EC50 determination was performed using CDD Vault normalized to 10 µM CQ and vehicle”

[6] = Homo sapiens, HepG2, 48 h, means from triplicate experiments ± SEM, 48-h incubation, read-out: HepG2 EC50
[7] = Homo sapiens, HepG2, average ± SEM of three replicates, read-out: HepG2: Average EC50
[8] = Homo sapiens, HepG2, individual replicates, read-out: HepG2: EC50
[9] = Plasmodium falciparum, 3D7, average ± SEM of three replicates, read-out: 3D7: Average EC50
[10] = Plasmodium falciparum, 3D7, individual replicates, read-out: 3D7: EC50
[11] = Plasmodium falciparum, 3D7, means from triplicate experiments ± SEM, read-out: 3D7 EC50
[12] = Plasmodium falciparum, DD2, 72 h, read-out: Dd2 EC50, means from triplicate experiments ± SEM, 72 h
[13] = Plasmodium falciparum, DD2, read-out: Dd2: Average EC50, average ± SEM of three replicates
[14] = Plasmodium falciparum, DD2, read-out: Dd2: EC50, individual replicates
[15] = individual replicates, read-out: HepG2: EC50

For `C[C@H]1[C@@H](O)O[C@@H]2O[C@@]3(C)CC[C@H]4[C@H](C)CC[C@@H]1[C@@]24OO3` [DHA, dihydroartemisinin], the IC50 ([1]; Plasmodium falciparum) was 0.005 ± 0.001 µM, the “relationship with NPDG-F at low concentrations” value [1] was “somewhat synergistic” and the “relationship with NPDG-F at higher concentrations” value [1] was “antagonistic”. For the same molecule, the “99.9% PCT (parasite clearance time)” value [2] was 32.5 h and the lag phase [2] was 0 h.
For `C=C1[C@@H](C)[C@H]2[C@H](Cc3ccccc3)NC(=O)[C@]23C(=O)/C=C/C(=O)C[C@@H](C)C[C@H](C)C/C=C/[C@H]3[C@@H]1O` [Methyldeoxaphomin NPDG-A], the “cytotoxicity in HepG2 at the highest concentration tested” value ([3]; 25 µM) was “no inhibition”, the EC50 [3, 6] was greater than 25 µM and the EC50 [3, 7] was greater than 25 µM. The EC50 [3, 8] was greater than 25 µM, the EC50 [4, 9] was greater than 5 µM and the EC50 [4, 10] was greater than 5 µM. For the same molecule, the EC50 [4, 11] was greater than 5 µM, the EC50 [5, 12] was greater than 5 µM and the EC50 [5, 13] was greater than 5 µM. It also gave an EC50 [5, 14] greater than 5 µM.
In the case of `CC1CC=CC2C=C(CO)C(C)C3C(Cc4ccccc4)NC(=O)C23C(=O)C=CC(=O)C(O)C(C)C1` (stereo not shown) [Methyldeoxaphomin NPDG-D], the EC50 [3, 6] is reported as 8.2 µM, the EC50 [3, 7] is reported as 8.2 ± 0.07 µM and the EC50 [3, 8] is reported as 8.3 µM. It also gave an EC50 [3, 15] of 8.1 µM, an EC50 [4, 9] greater than 5 µM and an EC50 [4, 10] greater than 5 µM. The EC50 [4, 11] was greater than 5 µM, the EC50 [5, 12] was greater than 5 µM and the EC50 [5, 13] was greater than 5 µM. The EC50 [5, 14] was greater than 5 µM.
With `C=C1C(C)C2C(Cc3ccccc3)NC(=O)C23C(=O)C=CC(O)CC(C)CC(C)CC=CC3C1O` (stereo not shown) [Methyldeoxaphomin NPDG-E] the “Selectivity Index (SI)” value ([3]; HepG2 EC50/(mean of Dd2 EC50, 3D7 EC50)) was 9, the EC50 [3, 6] was 23 µM and the EC50 [3, 7] was 23 ± 0.92 µM. For the same molecule, the EC50 [3, 8] was 21.3 µM, the EC50 [3, 15] was 24.7 µM and 23.2 µM and the EC50 [4, 9] was 2.8 ± 0.14 µM. For the same molecule, the EC50 [4, 10] was 2.67 µM, the EC50 [4, 11] was 2.8 ± 0.14 µM and the EC50 ([4]; individual replicates, read-out: 3D7: EC50) was 2.6 µM and 3.04 µM. It also gave an EC50 [5, 12] of 2.6 µM, an EC50 [5, 13] of 2.6 ± 0.31 µM and an EC50 [5, 14] of 2.22 µM. For the same molecule, the EC50 ([5]; read-out: Dd2: EC50, individual replicates) was 3.18 µM and 2.28 µM.
`O=C1NC(=S)N(c2cccc(Br)c2)C(=O)/C1=C/c1ccco1` [SMIFH2] was tested, and the “relationship with NPDG-F at low concentrations” value [1] was “primarily indifferent”, the “relationship with NPDG-F at higher concentrations” value [1] was “antagonistic” and the IC50 [1] was 11.3 ± 1.35 µM.
For `O=C1C(O)=C([C@H]2CC[C@H](c3ccc(Cl)cc3)CC2)C(=O)c2ccccc21` [atovaquone], the “99.9% PCT (parasite clearance time)” value [2] was “more than 96 h”, the lag phase [2] was 24 h and the “log(PRR)” value [2] was 5.12.
`C/C1=C/C(=O)O[C@@H]2C[C@@H](CC[C@H](C)/C=C\CC1)O[C@@](O)([C@@H]1CSC(=O)N1)C2` [latrunculin B] was tested, and the “fractional inhibitory concentration (FIC)” value ([1]; combination with NPDG-F) was “highest FIC values overall” and the IC50 [1] was 34.1 ± 1.51 µM.
